Assay results: PubChem BioAssay AID328 (DTP/NCI, 2004)
Several values for one entry are separate records, joined by “and”; a condition that tells them apart may be missing. Equal entries are not always repeated. Toxic doses and inconclusive results are not listed. The calls were made as follows: active = survival T/C of 150% or more; inactive = T/C below 125% in these data. Non-standard residues stand in square brackets, D forms with d. Residues, ends and D or L forms follow the SMILES beside them. ξ: configuration not given here. *: point of attachment. Cbz = O=C(OCc1ccccc1)*; ξK = NCCCCC(N)C(=O)O

System: BDF1 mice, P388 leukemia ip, median survival T/C
Assay: NCI In Vivo Anticancer Drug Screen. Data for tumor model P388 Leukemia (intraperitoneal) in B6D2F1 (BDF1) mice
Settings: endpoint: median survival time, higher = longer survival
Method: The antitumor activity of compounds was measured in mice bearing transplantable tumors. Survival or tumor size were measured and the results are expressed as the measurement made in the treated group (T) divided by the measurement made in the vehicle treated control group (C). The tumor model used in this assay is P388 Leukemia (intraperitoneal) in B6D2F1 (BDF1) mice

[1] = dose: 100.0 mg/kg/injection, schedule: Q01DX009 (ip), vehicle: saline with Tween-80
[2] = dose: 200.0 mg/kg/injection, schedule: Q01DX009 (ip), vehicle: saline with Tween-80
[3] = dose: 100.0 mg/kg/injection, schedule: Q04DX003 (ip), vehicle: saline with Tween-80
[4] = dose: 200.0 mg/kg/injection, schedule: Q04DX003 (ip), vehicle: saline with Tween-80
[5] = dose: 400.0 mg/kg/injection, schedule: Q04DX003 (ip), vehicle: saline with Tween-80
[6] = dose: 50.0 mg/kg/injection, schedule: Q01DX005 (ip), vehicle: saline with Tween-80
[7] = dose: 100.0 mg/kg/injection, schedule: Q01DX005 (ip), vehicle: saline with Tween-80
[8] = dose: 50.0 mg/kg/injection, schedule: Q01DX009 (ip), vehicle: water
[9] = dose: 100.0 mg/kg/injection, schedule: Q01DX009 (ip), vehicle: water
[10] = dose: 100.0 mg/kg/injection, schedule: Q04DX003 (ip), vehicle: water
[11] = dose: 200.0 mg/kg/injection, schedule: Q01DX009 (ip), vehicle: water
[12] = dose: 200.0 mg/kg/injection, schedule: Q04DX003 (ip), vehicle: water
[13] = dose: 400.0 mg/kg/injection, schedule: Q01DX009 (ip), vehicle: water
[14] = dose: 400.0 mg/kg/injection, schedule: Q04DX003 (ip), vehicle: water
[15] = dose: 50.0 mg/kg/injection, schedule: Q04DX003 (ip), vehicle: Klucel (hydroxypropylcellulose) (HPC)
[16] = dose: 100.0 mg/kg/injection, schedule: Q04DX003 (ip), vehicle: Klucel (hydroxypropylcellulose) (HPC)

Measured: T/C

Cc1ccc2oc(=O)c(C3=CC(=O)C(SC(=N)N)C=C3O)c(O)c2c1 (stereo not drawn)
inactive: dose: 50.0 mg/kg/injection, schedule: Q01DX005 (ip), vehicle: Klucel (hydroxypropylcellulose) (HPC) 95 % of control | dose: 100.0 mg/kg/injection, schedule: Q01DX005 (ip), vehicle: Klucel (hydroxypropylcellulose) (HPC) 97 % of control | dose: 200.0 mg/kg/injection, schedule: Q01DX005 (ip), vehicle: Klucel (hydroxypropylcellulose) (HPC) 91 % of control

CCOC(c1ccccc1)(c1ccccc1)c1ccccc1
inactive: dose: 100.0 mg/kg/injection, schedule: Q04DX003 (ip), vehicle: other 105 % of control | dose: 200.0 mg/kg/injection, schedule: Q04DX003 (ip), vehicle: other 105 % of control | dose: 400.0 mg/kg/injection, schedule: Q04DX003 (ip), vehicle: other 110 % of control

COc1cccc(N=C(N)N=C(N)N)c1
inactive: dose: 25.0 mg/kg/injection, schedule: Q04DX003 (ip), vehicle: saline 95 % of control | dose: 50.0 mg/kg/injection, schedule: Q01DX001 (ip), vehicle: saline 100 % of control | dose: 50.0 mg/kg/injection, schedule: Q04DX003 (ip), vehicle: saline 91 % of control | dose: 100.0 mg/kg/injection, schedule: Q01DX001 (ip), vehicle: saline 100 % of control | dose: 100.0 mg/kg/injection, schedule: Q04DX003 (ip), vehicle: saline 95 % of control

CC1(c2ccco2)NC(=O)NC1=O (stereo not drawn)
inactive: [1] 105 % of control | [2] 105 % of control | dose: 400.0 mg/kg/injection, schedule: Q01DX009 (ip), vehicle: saline with Tween-80 105 % of control

NNC(=O)c1cnccn1
inactive: dose: 40.0 mg/kg/injection, schedule: Q01DX010 (ip), vehicle: water 100 % of control | dose: 60.0 mg/kg/injection, schedule: Q01DX010 (ip), vehicle: water 100 % of control | dose: 80.0 mg/kg/injection, schedule: Q01DX010 (ip), vehicle: water 100 % of control and 109 % of control

COc1cc(NC(=O)C(C)NC(=O)C(N)CCCCN)cc2ccccc12 (stereo not drawn)
inactive: dose: 50.0 mg/kg/injection, schedule: Q01DX005 (ip), vehicle: suspension in saline 95 % of control | dose: 100.0 mg/kg/injection, schedule: Q01DX005 (ip), vehicle: suspension in saline 90 % of control

COCCCNC1=C(Cl)C(=O)c2ccccc2C1=O
inactive: dose: 50.0 mg/kg/injection, schedule: Q01DX009 (ip), vehicle: Klucel (hydroxypropylcellulose) (HPC) 106 % of control | dose: 100.0 mg/kg/injection, schedule: Q01DX009 (ip), vehicle: Klucel (hydroxypropylcellulose) (HPC) 113 % of control | dose: 200.0 mg/kg/injection, schedule: Q01DX009 (ip), vehicle: Klucel (hydroxypropylcellulose) (HPC) 109 % of control

CC(=O)c1ccc2c(c1)[nH]c1ccccc12
inactive: [3] 100 % of control | [4] 86 % of control | [5] 95 % of control

C[C@]12C=CC(=O)C=C1CC[C@@H]1[C@@H]2[C@@H](O)C[C@@]2(C)[C@H]1CC[C@]2(O)C(=O)CO
inactive: dose: 12.5 mg/kg/injection, schedule: Q01DX010 (sc), vehicle: steriod suspending solution 109 % of control and 120 % of control | dose: 25.0 mg/kg/injection, schedule: Q01DX010 (sc), vehicle: steriod suspending solution 109 % of control and 110 % of control | dose: 50.0 mg/kg/injection, schedule: Q01DX010 (sc), vehicle: steriod suspending solution 113 % of control and 120 % of control | dose: 100.0 mg/kg/injection, schedule: Q01DX010 (sc), vehicle: steriod suspending solution 118 % of control and 120 % of control

COc1cc(-c2ccc(NC(=O)NC3CC3)c(OC)c2)ccc1NC(=O)NC1CC1
inactive: [6] 89 % of control | [7] 91 % of control

Brc1ccc(-c2csc(Nc3nc(-c4ccc(Br)cc4)cs3)n2)cc1
inactive: [3] 90 % of control | [4] 90 % of control | [5] 95 % of control

CC1=CC2OC34COC3CC(OC(=O)C(F)(F)F)C4(C)C2(C)CC1 (stereo not drawn)
inactive: dose: 75.0 mg/kg/injection, schedule: Q04DX003 (ip), vehicle: saline with Tween-80 110 % of control | dose: 300.0 mg/kg/injection, schedule: Q04DX003 (ip), vehicle: saline with Tween-80 117 % of control

CN(C)C1=C(N2CC2)C(=O)C(N(C)C)=C(N2CC2)C1=O
active: dose: 0.5 mg/kg/injection, schedule: Q01DX009 (ip), vehicle: saline 151 % of control | dose: 1.0 mg/kg/injection, schedule: Q01DX009 (ip), vehicle: saline 174 % of control
inactive: dose: 0.25 mg/kg/injection, schedule: Q01DX009 (ip), vehicle: saline 87 % of control

CN=C(N)Nc1ccc(C(=O)O)cc1
inactive: [8] 93 % of control | [9] 99 % of control | [10] 100 % of control | [11] 90 % of control | [12] 94 % of control | [13] 92 % of control | [14] 88 % of control

O=C(NC(Cc1ccccc1)C(=O)O)OCc1ccccc1 (stereo not drawn)
inactive: [1] 120 % of control | [3] 92 % of control | [4] 100 % of control | [5] 107 % of control

Cc1cc(=O)c2cc(N)ccc2[nH]1
inactive: dose: 25.0 mg/kg/injection, schedule: Q01DX009 (ip), vehicle: water 110 % of control | [8] 94 % of control | dose: 50.0 mg/kg/injection, schedule: Q04DX003 (ip), vehicle: water 102 % of control | [9] 91 % of control | [10] 106 % of control | [11] 119 % of control | [12] 113 % of control | [13] 92 % of control | [14] 103 % of control

O=[N+]([O-])c1cc([N+](=O)[O-])c(Cl)cc1Cl
inactive: dose: 3.13 mg/kg/injection, schedule: Q01DX009 (ip), vehicle: Klucel (hydroxypropylcellulose) (HPC) 104 % of control | dose: 6.25 mg/kg/injection, schedule: Q01DX009 (ip), vehicle: Klucel (hydroxypropylcellulose) (HPC) 104 % of control | dose: 12.5 mg/kg/injection, schedule: Q01DX009 (ip), vehicle: Klucel (hydroxypropylcellulose) (HPC) 109 % of control | [15] 103 % of control | dose: 200.0 mg/kg/injection, schedule: Q04DX003 (ip), vehicle: Klucel (hydroxypropylcellulose) (HPC) 92 % of control

CC[P+]1(c2ccccc2)CCCc2ccc3ccccc3c21 (stereo not drawn)
inactive: dose: 1.56 mg/kg/injection, schedule: Q01DX009 (ip), vehicle: saline 116 % of control | dose: 3.12 mg/kg/injection, schedule: Q01DX009 (ip), vehicle: saline 120 % of control | dose: 30.0 mg/kg/injection, schedule: Q01DX009 (ip), vehicle: saline 90 % of control

CC(C)COP(=O)(O)OCC(C)C.[Al]
inactive: dose: 50.0 mg/kg/injection, schedule: Q01DX009 (ip), vehicle: saline with Tween-80 92 % of control | [1] 94 % of control | [2] 94 % of control

CC(=O)NC(CCCCNC(=O)OCc1ccccc1)C(=O)NCC(=O)O (stereo not drawn) (Ac-[ξK](Cbz)-Gly-OH)
inactive: [6] 93 % of control | [7] 105 % of control | dose: 200.0 mg/kg/injection, schedule: Q01DX005 (ip), vehicle: saline with Tween-80 100 % of control

O=Cc1ccc(C(=O)O)cc1
inactive: [3] 100 % of control | [4] 109 % of control | [5] 113 % of control

O=C1C(Br)=CC(=C2C=C(Br)C(=O)C(Br)=C2)C=C1Br
inactive: [15] 113 % of control | [16] 122 % of control

CC(Cl)CN(Cc1cc(O)c(CN(CC(C)Cl)CC(C)Cl)cc1O)CC(C)Cl (stereo not drawn)
active: dose: 400.0 mg/kg/injection, schedule: Q04DX003 (ip), vehicle: Klucel (hydroxypropylcellulose) (HPC) 154 % of control
inactive: [16] 118 % of control | dose: 264.0 mg/kg/injection, schedule: Q04DX003 (ip), vehicle: Klucel (hydroxypropylcellulose) (HPC) 91 % of control | dose: 264.0 mg/kg/injection, schedule: Q04DX003 (ip), vehicle: saline 113 % of control | dose: 400.0 mg/kg/injection, schedule: Q04DX003 (ip), vehicle: saline 109 % of control
